Test results taken from patent US11707527B2, “Nanoscale drug carrier capable of passing through blood-brain barrier” (KUNSHAN XINYUNDA BIOTECH CO., LTD., priority 2017, dated 2023).

System: glioma model mice
Experiment: Therapy of glioma-bearing mice, survival
Conditions: doxorubicin 1 mg/Kg at 9d, 12d and 15d after tumor cell inoculation
Description: An animal therapy experiment was conducted by the inventor to glioma-bearing mice (same mice as in Example 4). In the experiment, glioma model mice (same mice as in Example 4) were divided into two groups, 5 mice for each group. And then glioma model mice were treated with doxorubicin (1 mg/Kg) respectively after tumor cell inoculation for 9d, 12d and 15d.

COc1cccc2c1C(=O)c1c(O)c3c(c(O)c1C2=O)C[C@@](O)(C(=O)CO)C[C@@H]3O[C@H]1C[C@H](N)[C@H](O)[C@H](C)O1 [Free-Dox, doxorubicin]
Mean survival time / survival period: 15 days
